Earlier results on one substance are cited in patent US9636301B2, “In vitro release assay for liposome encapsulated vincristine” (ARBUTUS BIOPHARMA CORPORATION, priority 2012, dated 2017).

For the data set the following is noted: water.

Regarding “22-oxovincaleukoblastine [Vincristine sulfate]”, the solubility entry was “soluble in water”.
